Results published in paper PMC8073907, “Peptide targeting of lysophosphatidylinositol-sensing GPR55 for osteoclastogenesis tuning” (Cell Communication and Signaling : CCS, 2021).
Bridge positions count the residues as written; N and C are the ends. Ends that are not written are not given here. Peptide text beside a SMILES is read from it. * marks the point of attachment. FITC = O=C1OC2(c3ccc(O)cc3Oc3cc(O)ccc32)c2ccc(NC(=S)*)cc21; Ahx = NCCCCCC(=O)O

How the values were obtained:
human GPR55 = settings: ref [38]; read-out: affinity towards human GPR55; cited from earlier work
[1] = tested on: GPR55-silenced HeLa cells; assay: LPI-induced ERK1/2 and p38 phosphorylation in shGPR55-HeLa clones (Western blot); type: cell-based, human; settings: 10 µM soybean LPI, or 1 µM ionomycin 5 min
Procedure: For stable interference of GPR55, HeLa cells were plated at 1.5 × 10^5 cells/well in six-well plates in growth medium without antibiotics, and 24 h later, the cells were transfected with 1.7 µg/well OmicsLink short hairpin (sh)RNA expression clone CSHCTR001-CU6 (shCTRL) or clone HSH022476-3-CU6 (shGPR55) from GeneCopoeia (Rockville, MD, USA), using Lipofectamine 2000, according the manufacturer instructions. Forty-eight hours after transfection, HeLa clones stably expressing shRNAs were selected in growth medium containing 0.3 µg/mL puromycin. The efficiency of interference was monitored by real-time PCR using the primers listed in the Additional file 1: Table S1. HPRT1 was followed as a housekeeping gene.
Twenty-four hours after transfection (HEK293T, HeLa cells or clones) or 72 h after interference (RAW264.7 cells), the cells were washed twice with HBSS^++, serum deprived (HEK293T cells for 4 h in DMEM; HeLa cells and clones for 2 h in MEM plus 2 mM glutamine and 25 mM HEPES; RAW264.7 cells for 2 h in DMEM), washed once again with HBSS^++, incubated in stimulation buffer (HBSS^++ with 10 mM HEPES, 0.4% faf-BSA for HEK293T cells; HBSS^++ with 25 mM HEPES and 0.01% faf-BSA for HeLa cells, clones, and RAW264.7 cells) in the absence or presence of stimuli, at 37 °C for the indicated times. Incubations were terminated by washing the cells twice with cold HBSS^++, and the analyses were performed as reported below.
Cell lysates were obtained by scraping the cells into phospho-lysis buffer: 50 mM Tris–HCl, pH 7.5, 100 mM NaCl, 5 mM EDTA, 1% Triton X-100, 50 mM NaF, 40 mM β-glycerophosphate, 200 µM sodium orthovanadate, plus protease and phosphatase inhibitors (Roche). […]
Protein lysates were subjected to SDS-PAGE, and after electrophoresis, the proteins were transferred to a nitrocellulose membrane (PerkinElmer Life Science, Boston, MA, USA). […] The membranes were then washed twice with T-TBS and once with TBS for 5 min, and the signals were detected by ECL (Amersham Pharmacia, Piscataway, NJ, USA). […]

[2] = molecular target: peptide-P1 (synthetic construct); settings: cited from earlier work
murine GPR55 = molecular target: T1, murine GPR55 (Mus musculus, UniProt Q3UJF0); assay: Peptide binding to intact RAW264.7 cells (FACS); settings: FITC-Scr; si-GPR55 + siGLO relative to si-NT + siGLO; 40 µg/mL, 15 min, 37 °C
T1 construct: endogenous in cells; host or cells: RAW264.7 mouse macrophages (wild-type, or treated with si-NT / si-GPR55 siRNAs)
Procedure: Wild-type or 48-h-interfered RAW264.7 cells were plated at a density of 1.2 × 10^6 cells/well in six-well plates, and the following day they were used for on-plate-binding assays, or for RNA extraction. Before peptide addition, the cells were washed twice with HBSS^++, and then incubated without or with 40 µg/mL FITC-P1 or FITC-Scr for the indicated times at 37 °C in HBSS^++ plus 0.01% faf-BSA. The incubations were stopped by three washes with PBS, detached by scraping with PBS plus 2 mM EDTA, and then suspended in PBS plus 3% BSA. Fluorescence intensity was evaluated by FACS, and reported as means of cell-associated fluorescence increases compared to cells incubated in absence of peptides.
To evaluate peptide-P1 specificity towards murine GPR55, RAW264.7 cells were Gpr55-interfered as above, but the duplexes were previously mixed with the double pmol amount of siGLO Red transfection indicator (Dharmacon). […] FITC-fluorescence intensity was evaluated by FACS, and reported as means of cell-associated fluorescence increases compared to cells incubated in absence of peptides.

peptide-P1 = molecular target: T2, peptide-P1 (synthetic construct, disulfide 1-9 (inferred)); assay: FACS binding of FITC-peptide to RAW264.7 cells
T2 chain: {FITC-Ahx}-CKKNSPTLC

Molecule: CC(C)C[C@@H]1NC(=O)[C@H]([C@@H](C)O)NC(=O)[C@@H]2CCCN2C(=O)[C@H](CO)NC(=O)[C@H](CC(N)=O)NC(=O)[C@H](CCCCN)NC(=O)[C@H](CCCCN)NC(=O)[C@@H](NC(=O)CCCCCNC(=S)Nc2ccc3c(c2)C(=O)OC32c3ccc(O)cc3Oc3cc(O)ccc32)CSSC[C@@H](C(=O)O)NC1=O [FITC-P1] ({FITC-Ahx}-CKKNSPTLC-OH; disulfide 1-9; N-terminus and C-terminus assumed)
- Kd (human GPR55): 20 µM

Molecule: C[C@H](CCC(=O)O)C[C@H](C)C[C@H](C)C(=O)/C=C(\O)[C@H](C)C[C@H](C)C/C=C/[C@@H](C)[C@@H](O)[C@@H](C)[C@@H](O)C[C@@H]1CC[C@@](C)([C@H]2CC[C@@](C)([C@@H](C)O)O2)O1 [ionomycin]
- ERK1/2 and p38 activation [1]: still activated these pathways

Molecule: GPR55 (from UniProt Q9Y2T6)
- Kd [2]: 20 µM

Molecule: KCLTSNCPK (disulfide 2-7 (inferred)) [FITC-Scr, FITC-conjugated scrambled (…) peptide]
- effect of Gpr55 interference on binding (murine GPR55): not significantly affected by Gpr55 interference

B1: GPR55 (protein)
chain: MSQPERDNCSFDSVDKLTRTLQLAVHIPTFLLGLVLNLLAIRGFSAFLKKRKLDYIATSIYMINLAVFDLLLVLSLPFKMVLPQVESPLPSFCTLVECLYFISMYGSVFTICFISLDRFLAIQYPILASHLRSPRKTFGICCIIWMLVWIGSIPIYTFHREVERYKCFHNMSDVTWSASVFFPLEIFGFLLPMGIMGFCSYRSIHILLRRPDSTEDWVQQRDTKGWVQKRACIWTIATNLVIFVVSFLPVHLGFFLQYLVRNRFILDCRMKQGISLFLQLSLCFSNINCCLDVFCYYFVIKEFRMRIKAHRPSTIKLVNQDTMVSRG
- Kd (peptide-P1): 22.7 µM
